Where a name gives a salt, the structure may show the parent alone.

Consider 49 molecules from patent US9067897B2, “2,4-Diaminoquinazolines for spinal muscular atrophy” (Families of Spinal Muscular Atrophy, priority 2004, dated 2015).

For the first experiment, the system named is SMN2 promoter. Description: SMN2 promoter assay (β-lactamase reporter) in NSC-34 cells. The following applies: Mus musculus, SMN2 promoter driving β-lactamase, 12 point dose curve, average of 3-6 dose curve experiments. In kind it is cell-based, mouse. The text has this: All compounds were screened using an in vitro based SMN2 promoter assay. We used NSC-34 cells, a hybrid cell line between mouse spinal cord cells and mouse neuroblastoma cells. NSC-34 cells harbor an expression plasmid containing a 3.4 kb promoter fragment of the SMN2 gene driving β-lactamase expression.
[…] […] CCF2-AM diffuses across the plasma membrane and is converted into an active β-lactamase substrate by cytoplasmic esterase. […] The fold induction is proportional to the extent of β-lactamase produced and in turn proportional to SMN2 promoter activation for a given compound relative to vehicle (DMSO) control. […] These values are used to rank activities of the compounds and derive structure activity relationship.
Molecule `Nc1nc(N)c2c(OC(C(=O)O)c3ccc(Cl)cc3)cccc2n1` (stereo not shown) [Example 115, (4-Chlorophenyl)-(2,4-diamino-quinazolin-5-yloxy)-acetic acid] had an EC50 of less than 1000 nM.
The same measure, in the same setting: the same measure for `Cc1ccc(COc2cccc3nc(N)nc(N)c23)cc1` [Example 1, 5-(4-Methylbenzyloxy)quinazoline-2,4-diamine]: less than 1000 nM.
Consider `COCC(Oc1cccc2nc(N)nc(N)c12)c1ccccc1` (stereo not shown) [Example 166, 5-(2-Methoxy-1-phenylethoxy)quinazoline-2,4-diamine], for which the EC50 was less than 1000 nM.
On the same count and under the same terms, the value for `CC(Oc1cccc2nc(N)nc(N)c12)c1cc(F)cc(F)c1` (stereo not shown) [Example 107, 5-[1-(3,5-Difluorophenyl)ethoxy]quinazoline-2,4-diamine] was less than 1000 nM; that for `CCC(Oc1cccc2nc(N)nc(N)c12)c1ccc(Cl)cc1` (stereo not shown) [Example 50, 5-[1-(4-Chlorophenyl)propoxy]quinazoline-2,4-diamine] was less than 1000 nM; that for `Nc1nc(N)c2c(OC3CCc4ccc(F)cc43)cccc2n1` (stereo not shown) [Example 81, 5-(6-Fluoroindan-1-yloxy)-quinazoline-2,4-diamine] was less than 1000 nM.
Still for that read-out and setting: the same measure for `Nc1nc(N)c2c(COc3cccc(Cl)c3)cccc2n1` [Example 158, 5-(3-Chlorophenoxymethyl)quinazoline-2,4-diamine]: less than 1000 nM; for `CC(CC(O)(c1ccc(Cl)cc1)c1ccc(Cl)cc1)Oc1cccc2nc(N)nc(N)c12` (stereo not shown) [Example 168, 1,1-Bis-(4-chlorophenyl)-3-(2,4-diaminoquinazolin-5-yloxy)butan-1-ol]: 1000 to 5000 nM.
Molecule `C=CCOCCOc1cccc2nc(N)nc(N)c12` [Example 19, 5-(2-Allyloxyethoxy)quinazoline-2,4-diamine] returned an EC50 of less than 1000 nM.
With `Cc1ccc(OCc2cccc3nc(N)nc(N)c23)cc1` [Example 44, 5-p-Tolyloxymethylquinazoline-2,4-diamine], the 50% effective concentration (EC50) was less than 1000 nM.
On to `Nc1nc(N)c2c(OC3CCc4ccc(Cl)cc43)cccc2n1` (stereo not shown) [Example 61, 5-(6-Chloro-indan-1-yloxy)-quinazoline-2,4-diamine], for which the EC50 is less than 1000 nM.
Molecule `COc1cc(Cl)ccc1Oc1cccc2nc(N)nc(N)c12` [Example 71, 5-(4-Chloro-2-methoxyphenoxy)-quinazoline-2,4-diamine] showed an EC50 of less than 1000 nM.
On the same count and under the same terms, the value for `Cc1cc(OCc2cccc3nc(N)nc(N)c23)ccc1Cl` [Example 141, 5-(4-Chloro-3-methylphenoxymethyl)quinazoline-2,4-diamine] was less than 1000 nM.
The same measure, in the same setting: the value for `Nc1nc(N)c2c(OCc3cc(Cl)c(Cl)cc3CO)cccc2n1` [Example 70, [4,5-Dichloro-2-(2,4-diaminoquinazolin-5-yloxymethyl)phenyl]methanol hydrochloride] was less than 1000 nM; that for `Nc1nc(N)c2c(OCc3cc(Cl)ccc3CO)cccc2n1` [Example 89, [4-Chloro-2-(2,4-diamino-quinazolin-5-yloxymethyl)-phenyl]-methanol hydrochloride] was less than 1000 nM.
For `CC(Oc1cccc2nc(N)nc(N)c12)c1ccccc1F` (stereo not shown) [Example 103, 5-[1-(2-Fluorophenyl)-ethoxy]-quinazoline-2,4-diamine], the EC50 is less than 1000 nM.
Still for that read-out and setting: the same measure for `Nc1nc(N)c2c(OCC(O)c3ccc(Cl)cc3)cccc2n1` (stereo not shown) [Example 160, 1-(4-Chlorophenyl)-2-(2,4-diaminoquinazolin-5-yloxy)ethanol]: less than 1000 nM.
The molecule `Nc1nc(N)c2c(OCc3cnc4ccccc4c3)cccc2n1` [Example 112, 5-(Quinolin-3-ylmethoxy)-quinazoline-2,4-diamine] showed an EC50 of less than 1000 nM.
Same read-out and setting: the same measure for `CC(Oc1cccc2nc(N)nc(N)c12)c1cccc(C(F)(F)F)c1` (stereo not shown) [Example 95, 5-[1-(3-Trifluoromethylphenyl)-ethoxy]-quinazoline-2,4-diamine]: less than 1000 nM.
`Cc1ccccc1COc1cccc2nc(N)nc(N)c12` [Example 7, 5-(2-Methylbenzyloxy)quinazoline-2,4-diamine]: the EC50 was less than 1000 nM.
On the same count and under the same terms, the value for `Nc1nc(N)c2c(OC3(c4cccc(Cl)c4)CC3)cccc2n1` [Example 146, 5-[1-(3-Chlorophenyl)cyclopropoxy]quinazoline-2,4-diamine] was less than 1000 nM; that for `Nc1nc(N)c2c(OCc3ccc(I)cc3)cccc2n1` [Example 4, 5-(4-Iodobenzyloxy)quinazoline-2,4-diamine] was less than 1000 nM.
`Nc1nc(N)c2c(OCc3cc(F)ccc3F)cccc2n1` [Example 84, 5-(2,5-Difluorobenzyloxy)-quinazoline-2,4-diamine]: the EC50 was less than 1000 nM.
Molecule `Nc1nc(N)c2c(OCc3ccccc3C(F)(F)F)cccc2n1` [Example 99, 5-(2-Trifluoromethylbenzyloxy)-quinazoline-2,4-diamine] gave an EC50 of less than 1000 nM.
Turning to `Nc1nc(N)c2c(OCC3CC4CCC3C4)cccc2n1` (stereo not shown) [Example 151, 5-(Bicyclo[2.2.1]hept-2-ylmethoxy)quinazoline-2,4-diamine], the EC50 was less than 1000 nM.
`Nc1nc(N)c2c(OCc3ccc(F)cc3F)cccc2n1` [Example 85, 5-(2,4-Difluorobenzyloxy)-quinazoline-2,4-diamine]: the EC50 is less than 1000 nM.
Take `Nc1nc(N)c2c(OCc3cccs3)cccc2n1` [Example 22, 5-(Thiophen-2-ylmethoxy)quinazoline-2,4-diamine]: the EC50 is less than 1000 nM.
On the same count and under the same terms, the same measure for `CC(Oc1cccc2nc(N)nc(N)c12)c1ccccn1` (stereo not shown) [Example 57, 5-(1-Pyridin-2-ylethoxy)quinazoline-2,4-diamine]: less than 1000 nM; for `Nc1nc(N)c2c(COc3ccc(Cl)cc3)cccc2n1` [Example 43, 5-(4-Chlorophenoxymethyl)quinazoline-2,4-diamine]: less than 1000 nM.
On the same count and under the same terms, the same measure for `Nc1nc(N)c2c(OCc3ccccc3F)cccc2n1` [Example 96, 5-(2-Fluorobenzyloxy)-quinazoline-2,4-diamine]: less than 1000 nM.
On to `Nc1nc(N)c2c(OCc3cccc(C(F)(F)F)c3)cccc2n1` [Example 98, 5-(3-Trifluoromethylbenzyloxy)-quinazoline-2,4-diamine], for which the EC50 is less than 1000 nM.
The same measure, in the same setting: the same measure for `CC(Oc1cccc2nc(N)nc(N)c12)C1CCCC1` (stereo not shown) [Example 120, 5-(1-Cyclopentyl-ethoxy)-quinazoline-2,4-diamine]: less than 1000 nM; for `Cc1cccc(S(=O)(=O)c2cccc3nc(N)nc(N)c23)c1` [Example 60, 5-(Toluene-3-sulfonyl)-quinazoline-2,4-diamine]: 1000 to 5000 nM; for `CC1=NOC(COc2cccc3nc(N)nc(N)c23)C1` (stereo not shown) [Example 33, 5-(3-Methyl-4,5-dihydroisoxazol-5-ylmethoxy)quinazoline-2,4-diamine]: 1000 to 5000 nM.
Take `C[C@H](Oc1cccc2nc(N)nc(N)c12)c1ccc2ccccc2c1` [Example 109, 5-((S)-1-Naphthalen-2-yl-ethoxy)-quinazoline-2,4-diamine]: the EC50 is less than 1000 nM.
The molecule `COCOCC(Oc1cccc2nc(N)nc(N)c12)c1ccc2c(c1)OCO2` (stereo not shown) [Example 156, 5-(1-Benzo[1,3]dioxol-5-yl-2-methoxymethoxyethoxy)quinazoline-2,4-diamine] yielded a half-maximal effective concentration (EC50) of less than 1000 nM.
Still for that read-out and setting: the same measure for `Nc1nc(N)c2c(OCc3ccc4c(c3)OCO4)cccc2n1` [Example 54, 5-(Benzo[1,3]dioxol-5-ylmethoxy)quinazoline-2,4-diamine]: less than 1000 nM.
The molecule `Nc1nc(N)c2c(OCC3CC3)cccc2n1` [Example 16, 5-(Cyclopropylmethoxy)quinazoline-2,4-diamine] had an EC50 of less than 1000 nM.
As for `Nc1nc(N)c2c(COc3ccccc3I)cccc2n1` [Example 159, 5-(2-Iodophenoxymethyl)quinazoline-2,4-diamine], the EC50 is less than 1000 nM.
Same read-out and setting: the same measure for `Nc1nc(N)c2c(OC3COc4ccc(Cl)cc43)cccc2n1` (stereo not shown) [Example 128, 5-(5-Chloro-2,3-dihydro-benzofuran-3-yloxy)-quinazoline-2,4-diamine]: less than 1000 nM; for `Nc1nc(N)c2c(SCc3ccc(Cl)cc3)cccc2n1` [Example 29, 5-(4-Chlorobenzylsulfanyl)quinazoline-2,4-diamine]: less than 1000 nM; for `Nc1nc(N)c2c(OCC(O)c3ccc(C(F)(F)F)cc3)cccc2n1` (stereo not shown) [Example 163, 2-(2,4-Diaminoquinazolin-5-yloxy)-1-(4-trifluoromethylphenyl)ethanol]: less than 1000 nM.
`CC(Oc1cccc2nc(N)nc(N)c12)c1ccccc1C(F)(F)F` (stereo not shown) [Example 94, 5-[1-(2-Trifluoromethylphenyl)-ethoxy]-quinazoline-2,4-diamine] came in with an EC50 of 10000 to 20000 nM.
The molecule `CC(Oc1cccc2nc(N)nc(N)c12)c1ccc(Cl)c(Cl)c1` (stereo not shown) [Example 78, 5-[1-(3,4-Dichlorophenyl)-ethoxy]-quinazoline-2,4-diamine] had an EC50 of less than 1000 nM.
On the same count and under the same terms, the value for `COc1ccc(Cl)cc1COc1cccc2nc(N)nc(N)c12` [Example 88, 5-(5-Chloro-2-methoxybenzyloxy)quinazoline-2,4-diamine] was less than 1000 nM.

The same experiment, now with this note: SMN2 promoter driving β-lactamase, 12 point dose curve, average of 3-6 dose curve experiments.
Consider `Nc1nc(N)c2c(OCC3CCN(C(=O)c4ccccc4I)CC3)cccc2n1` [Example 137, [4-(2,4-Diaminoquinzolin-5-yloxymethyl)piperidin-1-yl]-(2-iodophenyl)methanone], for which the EC50 is less than 1000 nM.
Still for that read-out and setting: the same measure for “2-(2,4-Diaminoquinazolin-5-yloxy)-1-(4-fluorophenyl)ethanol [Example 167]”: less than 1000 nM; for `COc1cccc2c1OCC2Oc1cccc2nc(N)nc(N)c12` (stereo not shown) [Example 72, 5-(7-Methoxy-2,3-dihydrobenzofuran-3-yoloxy)-quinazoline-2.4-diamine]: 1000 to 5000 nM.
“5-((1S,2R,5S)-6,6-Dimethylbieyclo[3.1.1]hept-2-ylmethoxy)quinazoline-2,4-diamine [Example 130]”: the EC50 was less than 1000 nM.
